According to patent publication US6680379B1, “Organic anion transporter genes and proteins” (Metabasis Therapeutics, Inc., priority 1999, dated 2004):

Key:
hOAT2A [1] = biological target: T1, hOAT2A (Homo sapiens, UniProt Q9Y694); assay: Competition assay of 3H-PAH uptake in EcR293/OAT2A cells; type: cell-based; design: Isolation of Full-length Human OAT2A and OAT2B cDNA; expressed in transfected cells; host or cells: EcR293 (Invitrogen); conditions: 100 μM competitor
T1 sequence (Q9Y694 1-546 isoform Q9Y694-2): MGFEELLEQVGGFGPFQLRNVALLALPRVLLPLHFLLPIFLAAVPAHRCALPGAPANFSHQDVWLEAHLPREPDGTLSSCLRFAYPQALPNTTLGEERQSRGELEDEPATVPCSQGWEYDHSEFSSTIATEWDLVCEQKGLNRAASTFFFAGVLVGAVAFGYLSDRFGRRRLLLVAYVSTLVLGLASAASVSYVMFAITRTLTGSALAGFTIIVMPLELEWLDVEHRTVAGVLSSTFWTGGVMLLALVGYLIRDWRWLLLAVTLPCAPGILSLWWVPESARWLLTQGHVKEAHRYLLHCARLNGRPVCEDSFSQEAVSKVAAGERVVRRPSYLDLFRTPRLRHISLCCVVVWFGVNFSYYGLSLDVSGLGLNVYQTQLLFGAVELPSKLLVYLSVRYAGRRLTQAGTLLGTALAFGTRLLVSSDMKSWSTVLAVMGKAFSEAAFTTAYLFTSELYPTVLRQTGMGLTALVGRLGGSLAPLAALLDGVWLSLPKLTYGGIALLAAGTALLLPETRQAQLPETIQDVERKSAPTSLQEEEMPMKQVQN

hOAT2A [2] = biological target: T1, hOAT2A; assay: 3H-PAH uptake in EcR293 cells stably containing pIND(sp1)-hOAT2A, ponasterone induced; conditions: EcR293, 1.25 μg/ml ponasterone for 24 hours
From the text: Vector pIND(sp1) (Invitrogen) contains the ecdysone-inducible promoter (EcRE). […] After cloning, the vectors were separately transfected into cell line EcR293 (Invitrogen). […] The pVgRXR vector constitutively expresses the ecdysone receptor and the retinoid X receptor (RXR). The ecdysone receptor and RXR form a heterodimer which, upon activation by the hormone ecdysone, binds to a promoter containing the EcRE. The pVgRXR vector was maintained within the EcR293 cell line by selection with 400 μg/ml zeocin. The pIND(sp1)-hOAT plasmids contain a neomycin resistance marker, and cells stably integrating the plasmids were selected for by culturing the cells in media supplemented with 400 μg/ml G418. After two weeks of selection, individual colonies appeared and were isolated and expanded. […] The cells were then subjected to standard transport assays.
Expression of hOAT1 at high levels can be easily achieved by inducing with ponasterone for twenty-four (24) hours.

| 3H-PAH uptake, ponasterone induced versus non-induced cells (hOAT2A) (hOAT2A [2]) | Compound | effect on uptake of 3H-PAH in EcR293/OAT2A cells (hOAT2A [1]) | effect on uptake of 3H-PAH in EcR293/OAT2A cells (hOAT2A [1]; listed as sulfobromophthalein) |
| --- | --- | --- | --- |
| – | O=C1OC(c2ccc(O)c(S(=O)(=O)O)c2)(c2ccc(O)c(S(=O)(=O)O)c2)c2c(Br)c(Br)c(Br)c(Br)c21 [BSP, sulfobromophthalein] | blocked | competed |
| approximately 2.6 fold | Nc1ccc(C(=O)NCC(=O)O)cc1 [PAH, p-aminohippurate] | – | – |
